Results on 33 compounds are retold here after patent publication US9018383B2, “Acylamino-substituted cyclic carboxylic acid derivatives and their use as pharmaceuticals” (Sanofi, priority 2009, dated 2015).

In the experiment the target is human Edg-2 receptor (Homo sapiens, UniProt Q92633). The experiment in a line: Determination of Edg-2 receptor inhibition by FLIPR measurements (LPA-mediated calcium liberation). Type of experiment: cell-based. The settings on record: CHO cells overexpressing human Edg-2 receptor, LPA 100 nM, fluo-4 calcium fluorescence; read-out: Inhibitory concentrations IC50 for inhibition of the Edg-2 receptor. As for the experimental part:
A) Determination of Edg-2 Receptor Inhibition by Fluorescence Imaging Plate Reader (FLIPR) Measurements
The inhibition of the Edg-2 receptor (LPA1 receptor) by the compounds of the invention was quantified by the inhibitory effect on the LPA-mediated calcium liberation in a cell-based calcium fluorescence assay by use of Chinese hamster ovarian (CHO) cells in which the human Edg-2 receptor was stably overexpressed (Flp-In system, Invitrogen). […] Changes in intracellular calcium were determined by fluorescence measurement with the calcium-sensitive dye fluo-4 (Invitrogen) in a fluorescence imaging plate reader (FLIPR, […]).
CHO cells stably overexpressing the human Edg-2 receptor were seeded (40.000 per well) in black clear-bottomed poly-D-lysine-coated 96 well plates (Becton Dickinson, Biocoat cellware) approximately 18-24 h prior to the experiments. Cells were grown in an incubator at 37° C., 5% carbon dioxide and 95% humidity in cell culture media based on F-12 glutamax media (Gibco, #31765) supplemented with 1% (vol/vol) penicilline/streptomycine (PAN, #P06-07100), 10% (vol/vol) fetal calf serum (FCS, PAA, #A15-151) and hygromycin B (Invitrogen, #10687-010) 300 mg/l (final concentrations).
Prior to the FLIPR experiment, cells were loaded with fluo-4 acetoxymethyl ester (fluo-4 AM, Invitrogen, #F14202) for 60 min in an incubator at 37° C., 5% carbon dioxide and 95% humidity in dye-loading buffer consisting of Hanks' Balanced Salt Solution (HBSS, Invitrogen, #14065049) supplemented with fluo-4 AM at 2 μM (all data given for final concentration), Pluronic® F-127 0.05% (vol/vol) (Invitrogen, #P-3000 MP), HEPES 20 mM (Gibco, #15630), probenecid 2.5 mM (Sigma, #P-8761) and bovine serum albumin 0.05% (BSA, Sigma, #A-6003), adjusted to pH 7.5 with sodium hydroxide. During cell loading, fluo-4 AM is cleaved by intracellular esterase resulting in trapping of the dye fluo-4 within the cells. Loading was terminated by washing of the cells in a cell washer (Tecan Power washer) three times with the buffer specified afore but without fluo-4 AM and BSA. This latter buffer was also used as the buffer in the subsequent cell fluorescence measurements.
The dye-loaded and washed cells were pre-incubated for approximately 5 min with various concentrations of the test compound added as a solution in DMSO (0.3% vol/vol maximum final concentration of DMSO), or with DMSO in the respective concentration only (positive control). Subsequent addition of LPA (18:1, 1-oleoyl-sn-glycerol 3-phosphate; 100 nM final concentration) leads to liberation of intracellular calcium from internal stores resulting in a large transient increase of the fluo-4 fluorescence signal which was monitored over approximately 3 min. The percent inhibition caused by the test compound was determined from the maximum fluorescence response after LPA addition to cells pre-incubated with the compound as compared to the maximum fluorescence response after LPA addition to cells pre-incubated with DMSO only. All fluorescence values were corrected for the baseline fluorescence values obtained with cells which were pre-incubated with DMSO only and were not treated with LPA (baseline control). All measurements were performed in triplicate. From the percent inhibitions the inhibitory concentration IC50 was determined.

human Edg-2 receptor, sequence (Q92633 whole entry): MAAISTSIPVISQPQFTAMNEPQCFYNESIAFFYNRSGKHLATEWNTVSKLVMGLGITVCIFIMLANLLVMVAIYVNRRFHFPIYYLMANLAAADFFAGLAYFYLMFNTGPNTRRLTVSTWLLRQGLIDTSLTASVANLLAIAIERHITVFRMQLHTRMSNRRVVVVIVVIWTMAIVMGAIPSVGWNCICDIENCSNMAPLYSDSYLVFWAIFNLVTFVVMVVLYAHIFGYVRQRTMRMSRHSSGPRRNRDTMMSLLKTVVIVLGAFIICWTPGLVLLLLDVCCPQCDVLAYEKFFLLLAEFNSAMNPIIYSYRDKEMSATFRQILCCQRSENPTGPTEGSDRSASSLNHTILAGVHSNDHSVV

For `COc1ncc(C(=O)N[C@]2(C(=O)O)CC[C@H](C(F)(F)F)CC2)cc1-c1cccc(Cl)c1Cl` [Example 378], the IC50 is less than 100 nM.
For `CC[C@H]1CC[C@](NC(=O)c2ccc(OC)c(OCCc3cccc(CCO)c3)c2)(C(=O)O)CC1` [Example 111, cis-4-Ethyl-1-(3-{2-[3-(2-hydroxy-ethyl)-phenyl]-ethoxy}-4-methoxy-benzoylamino)-cyclohexanecarboxylic acid], the IC50 was less than 100 nM.
The result for `COc1ccc(C(=O)NC2(C(=O)O)CCCC2OCc2ccccc2)cc1OCCc1cccc(C)c1` (single isomer, unassigned) [Example 66, 2-Benzyloxy-1-[4-methoxy-3-(2-m-tolyl-ethoxy)-benzoylamino]-cyclopentanecarboxylic acid] reads 100 to 1000 nM; that for `COc1ccc(C(=O)N[C@]2(C(=O)O)CC[C@@H](C)CC2)cc1-c1c(F)cc(OC)c(Cl)c1F` [Example 445, 1-[(3′-Chloro-2′,6′-difluoro-6,4′-dimethoxy-biphenyl-3-carbonyl)-amino]-4-methyl-cyclohexanecarboxylic acid], less than 100 nM.
The result for `CC[C@H]1CC[C@](NC(=O)c2ccc(OCCO)c(OCCc3cccc(Cl)c3)c2)(C(=O)O)CC1` [Example 419, cis-1-[3-[2-(3-Chloro-phenyl)-ethoxy]-4-(2-hydroxy-ethoxy)-benzoylamino]-4-ethyl-cyclohexanecarboxylic acid] reads less than 100 nM; that for `CC[C@H]1CC[C@@](NC(=O)c2cnc(OC)c(-c3ccc(Cl)c(C(F)(F)F)c3)c2)(C(=O)O)CC1` [Example 408], 100 to 1000 nM; that for `CC[C@H]1CC[C@@](NC(=O)c2cnc(OC)c(-c3ccc(OC)c(F)c3)c2)(C(=O)O)CC1` [Example 412], less than 100 nM.
The result for `CC[C@H]1CC[C@](NC(=O)c2ccc(OC)c(-c3ccc(OC)c(F)c3)c2)(C(=O)O)CC1` [Example 425, cis-4-Ethyl-1-[(3′-fluoro-6,4′-dimethoxy-biphenyl-3-carbonyl)-amino]-cyclohexanecarboxylic acid] reads 100 to 1000 nM; that for `COc1ccc(-c2cc(C(=O)N[C@]3(C(=O)O)CC[C@@H](C)CC3)cc(F)c2OC)cc1Cl` [Example 446, Trans-1-[(3′-Chloro-5-fluoro-6,4′-dimethoxy-biphenyl-3-carbonyl)-amino]-4-methyl-cyclohexanecarboxylic acid], less than 100 nM.
With `COc1ccc(C(=O)NC2(C(=O)O)CCCC(C)C2)cc1OCCc1cccc(C)c1` (stereo not drawn) [Example 372], the IC50 lay in the range of 100 to 1000 nM.
Consider `COc1ccc(C(=O)NC2(C(=O)O)CCCCCCC2)cc1OCCc1cccc(C)c1` [Example 23, 1-[4-Methoxy-3-(2-m-tolyl-ethoxy)-benzoylamino]-cyclooctanecarboxylic acid], for which the IC50 fell in the range of 100 to 1000 nM.
The result for `COc1ccc(C(=O)NC2(C(=O)O)CCC(C)C2)cc1OCCc1cccc(C)c1` (stereo not drawn) [Example 33] reads less than 100 nM; that for `CC[C@H]1CC[C@](NC(=O)c2ccc(OC)c(-c3cccc(OC(F)(F)F)c3)c2)(C(=O)O)CC1` [Example 327], less than 100 nM; that for `COc1ccc(C(=O)NC2(C(=O)O)CC3CCC(C3)C2)cc1OCCc1cccc(C)c1` (stereo not drawn) [Example 31], less than 100 nM.
As to `COc1ccc(C(=O)NC2(C(=O)O)CC(C)C2)cc1OCCc1cccc(C)c1` (stereo not drawn) [Example 76, 1-[4-Methoxy-3-(2-m-tolyl-ethoxy)-benzoylamino]-3-methyl-cyclobutanecarboxylic acid], the IC50 was less than 100 nM.
The result for `Cc1cccc(CCOc2cc(C(=O)NC3(C(=O)O)CCCCCC3)cc3c2OCO3)c1` [Example 132, 1-{[7-(2-m-Tolyl-ethoxy)-benzo[1,3]dioxole-5-carbonyl]-amino}-cycloheptanecarboxylic acid] reads less than 100 nM; that for `CCC1CCC(NC(=O)c2ccc(OC)c(OCCc3cccc(C)c3)c2)(C(=O)O)CC1` (stereo not drawn) [Example 50], less than 100 nM.
`C[C@H]1CC[C@](NC(=O)c2ccc(OCCO)c(OCCc3cccc(Cl)c3)c2)(C(=O)O)CC1` [Example 119, cis-1-[3-[2-(3-Chloro-phenyl)-ethoxy]-4-(2-hydroxy-ethoxy)-benzoylamino]-4-methyl-cyclohexanecarboxylic acid]: the IC50 is less than 100 nM.
The result for `CC(=O)c1ccc(C(=O)NC2(C(=O)O)CCCCCC2)cc1OCCc1cccc(C)c1` [Example 60, 1-[4-Acetyl-3-(2-m-tolyl-ethoxy)-benzoylamino]-cycloheptanecarboxylic acid] reads 100 to 1000 nM; that for `COc1ccc(C(=O)NC2(C(=O)O)CCCCCC2)cc1OCC(O)c1cccc(C)c1` (stereo not drawn) [Example 73, 1-[3-(2-Hydroxy-2-m-tolyl-ethoxy)-4-methoxy-benzoylamino]-cycloheptanecarboxylic acid], 1000 to 30000 nM.
In the case of `COc1ncc(C(=O)N[C@]2(C(=O)O)CC[C@@H](C)CC2)cc1-c1cc(F)c(F)c(F)c1` [Example 314], the IC50 was less than 100 nM.
The result for `CCC1CCC(NC(=O)c2ccc(OC)c(OCCc3cccc(C)c3)c2)(C(=O)O)CC1` (stereo not drawn) [Example 30] reads less than 100 nM; that for `COc1ncc(C(=O)N[C@]2(C(=O)O)CC[C@H](C)CC2)cc1OCCc1cccc(CCO)c1` [Example 91, cis-1-[(5-{2-[3-(2-Hydroxy-ethyl)-phenyl]-ethoxy}-6-methoxy-pyridine-3-carbonyl)-amino]-4-methyl-cyclohexanecarboxylic acid], less than 100 nM; that for `CC[C@H]1CC[C@](NC(=O)c2cnc(OC)c(OCCc3cccc(CCO)c3)c2)(C(=O)O)CC1` [Example 423, cis-4-Ethyl-1-[(5-{2-[3-(2-hydroxy-ethyl)-phenyl]-ethoxy}-6-methoxy-pyridine-3-carbonyl)-amino]-cyclohexanecarboxylic acid], less than 100 nM.
The result for `C[C@H]1CC[C@@](NC(=O)c2ccc(C(F)(F)F)c(-n3ccc4ccccc43)c2)(C(=O)O)CC1` [Example 452, 1-(3-Indol-1-yl-4-trifluoromethyl-benzoylamino)-4-methyl-cyclohexanecarboxylic acid] reads 100 to 1000 nM; that for `COCCOc1ccc(C(=O)NC2(C(=O)O)CCCCCC2)cc1OCCc1cccc(C)c1` [Example 116, 1-[4-(2-Methoxy-ethoxy)-3-(2-m-tolyl-ethoxy)-benzoylamino]-cycloheptanecarboxylic acid], 1000 to 30000 nM; that for `COc1ccc(C(=O)NC2(C(=O)O)CCCC(C)CC2)cc1OCCc1cccc(C)c1` (stereo not drawn) [Example 26], less than 100 nM.
As to `COc1ccc(C(=O)N[C@]2(C(=O)O)CC[C@H](C(F)(F)F)CC2)cc1OCCc1cccc(C2COC2)c1` [Example 460, 1-{4-Methoxy-3-[2-(3-oxetan-3-yl-phenyl)-ethoxy]-benzoylamino}-4-trifluoromethyl-cyclohexanecarboxylic acid], the IC50 lay within 100 to 1000 nM.
Regarding `COc1ncc(C(=O)N[C@]2(C(=O)O)CC[C@@H](C)CC2)cc1OCCc1cc(C)ccc1C` [Example 84, trans-1-({5-[2-(2,5-Dimethyl-phenyl)-ethoxy]-6-methoxy-pyridine-3-carbonyl}-amino)-4-methyl-cyclohexanecarboxylic acid], the IC50 lay within 1000 to 30000 nM.
The result for `COc1ccc(C(=O)N[C@]2(C(=O)O)CC[C@H](C)CC2)cc1-c1cccc(OC(F)(F)F)c1` [Example 329] reads less than 100 nM; that for `COc1ccc(C(=O)NC2(C(=O)O)CCCCCC2)cc1-c1cccc(C(C)C)c1` [Example 105], 100 to 1000 nM; that for `COc1ccc(C(=O)NC2(C(=O)O)CCC=CCC2)cc1OCCc1cccc(C)c1` [Example 74, 1-[4-Methoxy-3-(2-m-tolyl-ethoxy)-benzoylamino]-cyclohept-4-enecarboxylic acid], less than 100 nM.
The result for `COc1ccc(C(=O)NC2(C(=O)O)CCC(CO)CC2)cc1OCCc1cccc(C)c1` (stereo not drawn) [Example 58, 4-Hydroxymethyl-1-[4-methoxy-3-(2-m-tolyl-ethoxy)-benzoylamino]-cyclohexanecarboxylic acid] reads 1000 to 30000 nM.
